The results in this text go back to patent US20210169959A1, “TERMINALIA FERDINANDIANA EXTRACT AND PRODUCTS CONTAINING EXTRACT OF TERMINALIA FERDINANDIANA FOR ANTIMICROBIAL OR ANTIBACTERIAL APPLICATIONS” (RISING PHOENIX INDUSTRIES PTY LTD, priority 2017, published 2021).

Structures are written as SMILES. ≈ marks a conversion by molar mass, not a printed value. Where “and” joins values, the source holds several entries; their conditions need not be identical. Identical values can stand only once. Like-named read-outs stand apart in the source and are kept apart here.

The test system of series [1] is Giardia duodenalis trophozoites. The series can be described thus: G. duodenalis trophozoite proliferation (strain not specified or several strains together). It is filed as cell-based. The following applies: for inhibition at 300 µg/mL: Giardia duodenalis; for inhibition at 300 µg/mL / inhibition of trophozoite proliferation: pure compounds at 300 μg/mL; for IC50: compound alone, over the different strains.

Series [2] has as its system Giardia duodenalis trophozoites, sheep S2 strain. The series can be described thus: G. duodenalis trophozoite proliferation, sheep S2 strain. The note with it: for IC50 / IC50 Single Compound: compound alone; for Class of Interaction / ΣFIC50: in combination with ascorbic acid.
In series [3] the test system is Giardia duodenalis trophozoites, ATCC203333. As to the kind of experiment: G. duodenalis trophozoite proliferation, ATCC203333 (metronidazole sensitive). The following applies: for Class of Interaction / ΣFIC50: in combination with ascorbic acid.
The subject of series [4] is Giardia duodenalis trophozoites, ATCC PRA-251. The series can be described thus: G. duodenalis trophozoite proliferation, ATCC PRA-251 (metronidazole resistant). The note with it: for IC50: read-out: IC50 Single Compound; for inhibition of the metronidazole resistant strain (in words): pure compounds at 300 μg/mL; for Class of Interaction / ΣFIC50: in combination with ascorbic acid.

In series [5] the test system is Artemia nauplii. The note with it: for Toxicity Compound Alone ALA: 24 hours exposure; for Toxicity Compound/ascorbic acid combination ALA: in combination with ascorbic acid.
For series [6], the system named is human dermal fibroblast. The note with it: for Toxicity Compound/ascorbic acid combination HDF: in combination with ascorbic acid.
[7] abbreviates: metronidazole sensitive G. duodenalis strain.
Where [8] appears, read: Giardia duodenalis, in Ovis aries, read-out: IC50 Single Compound, Sheep S2 Strain.
[9] abbreviates: Giardia duodenalis, ATCC203333, read-out: IC50 Single Compound.
[10] abbreviates: all three G. duodenalis strains.
[11] abbreviates: compound alone, 24 hours exposure.
Setting [12] is: read-out: IC50 Single Compound, Sheep S2 Strain.
The mark [13] stands for this setting: read-out: IC50 Single Compound, ATCC203333, compound alone.

`O=C1O[C@H]([C@@H](O)CO)C(O)=C1O` [Ascorbic acid, ascorbic acid]: in series [1] (setting [7]), the inhibition – broadly, the share of the control response that was lost under treatment – at 300 µg/mL is around 15%. The IC50 (usually the concentration that inhibits the measured activity by half) in series [2] (setting [8]) was 1870 µg/mL and 10.6 mM; in series [3] (setting [9]), 1910 µg/mL and 10.8 mM; in series [4] (Giardia duodenalis) it was 2850 µg/mL and 16.2 mM. The “inhibition of the metronidazole resistant strain (in words)” value in series [4] is given as “ineffective inhibitors”.
In the case of `O=C(O)C[C@H](C(=O)O)[C@H]1c2c(cc(O)c(O)c2O)C(=O)O[C@@H]1C(=O)O` [Chebulic acid, chebulic acid], the “inhibition of trophozoite proliferation” value in series [1] (setting [10]) is given as around 40%. Moreover, in series [5], the “Toxicity Compound Alone ALA” value was 165 µg/mL. The “Toxicity Compound/ascorbic acid combination ALA” value in series [5] worked out at 224 µg/mL. In series [6] (setting [11]), the “Toxicity Compound Alone HDF” value was 380 µg/mL. The “Toxicity Compound/ascorbic acid combination HDF” value in series [6] stood at 375 µg/mL. Also, the “IC50 Single Compound” value was found to be 1283 µg/mL (≈ 3.6 mM) in series [2] (Sheep S2 Strain); 985 µg/mL (≈ 2.76 mM) in series [3] (ATCC203333, compound alone); 1220 µg/mL (≈ 3.42 mM) in series [4] (ATCC PRA-251, compound alone). Also, the “Class of Interaction” value in series [2] (Sheep S2 Strain), in series [3] (ATCC203333) and in series [4] (ATCC PRA-251) was “Additive” in each case. The ΣFIC50 was determined as 0.56 in series [2] (Sheep S2 Strain), 0.6 in series [3] (ATCC203333) and 0.52 in series [4] (ATCC PRA-251). Further, the IC50 in series [2] (setting [12]) amounted to 3600 µM; in series [3] (setting [13]), 2760 µM; in series [4] (ATCC PRA-251, compound alone), 3420 µM.
On to `O=C(O)[C@H]1O[C@@H](Oc2cccc(O)c2O)[C@H](O)[C@@H](O)[C@@H]1O` [DPGA, 2,3-dihydroxyphenyl B-D-glucopyranosiduronic acid], for which the “ratios producing synergistic inhibition (isobologram)” value in series [1] (DPGA:ascorbic acid combinations, metronidazole sensitive strains) was at most 60 % DPGA. Also, the “IC50 as share of the IC50 of ascorbic acid” value in series [1] (components tested separately) is listed as “approximately 5%”. Further, in series [1] (components tested separately), the “potency relative to ascorbic acid” value is around 20 times. For the same compound, the “IC50” value in series [1] is 38 to 72 µg/mL; in series [1] (read-out: IC50), ≥ 126 µM and 126 to 238 µM; in series [2] (setting [12]), 156 µM; in series [3] (setting [13]), 126 µM; in series [4] (ATCC PRA-251, compound alone), 238 µM. Further, in series [1] (setting [10]), the “inhibition of trophozoite proliferation” value came out at 100%. The “Toxicity Compound Alone ALA” value in series [5] is listed as “CND”. The “Toxicity Compound/ascorbic acid combination ALA” value in series [5] is above 500 µg/mL. The “Toxicity Compound Alone HDF” value in series [6] (setting [11]) is “CND”. For the same compound, the “Toxicity Compound/ascorbic acid combination HDF” value in series [6] is above 500 µg/mL. The “IC50 Single Compound” value in series [2] (Sheep S2 Strain) is 47 µg/mL (≈ 0.156 mM); in series [3] (ATCC203333, compound alone), 38 µg/mL (≈ 0.126 mM); in series [4] (ATCC PRA-251, compound alone) it was 72 µg/mL (≈ 0.238 mM). Besides, the “Class of Interaction” value in series [2] (Sheep S2 Strain), in series [3] (ATCC203333) and in series [4] (ATCC PRA-251) was “Synergy” throughout. The results for the ΣFIC50 in series [2] (Sheep S2 Strain), in series [3] (ATCC203333) and in series [4] (ATCC PRA-251) were 0.11, 0.18 and 0.18, respectively. The “ratios with synergistic interaction (isobologram)” value in series [4] (DPGA:ascorbic acid combinations, metronidazole resistant strain) is 30-50 % DPGA.
As to `O=C(O)c1cc(O)c(O)c(O)c1` [Gallic acid, gallic acid], the inhibition at 300 µg/mL in series [1] (setting [10]) was around 50%. Moreover, the “ratios inducing synergistic responses (isobologram)” value in series [1] (gallic acid:ascorbic acid combinations, all three strains) is given as 30-60 % gallic acid. In addition, in series [5], the “Toxicity Compound Alone ALA” value worked out at 132 µg/mL. The “Toxicity Compound/ascorbic acid combination ALA” value in series [5] is 147 µg/mL. Besides, in series [6] (human, 24 h), the “Toxicity Compound Alone HDF” value worked out at 320 µg/mL. For the same compound, the 50% inhibitory concentration (IC50) in series [2] (setting [8]) is 1150 µg/mL and 6.79 mM; in series [3] (setting [9]), 1370 µg/mL and 8.04 mM; in series [4] (Giardia duodenalis), 1260 µg/mL and 7.38 mM. In addition, the “IC50 Single Compound” value in series [2] (Sheep S2 Strain) amounted to 1156 µg/mL (≈ 6.8 mM). For the same compound, the “Class of Interaction” value in series [2] (Sheep S2 Strain), in series [3] (ATCC203333) and in series [4] (ATCC PRA-251) was “Synergy” throughout. Further, the ΣFIC50 in series [2] (Sheep S2 Strain) was found to be 0.15; in series [3] (ATCC203333), 0.38; in series [4] (ATCC PRA-251) it was 0.32.
With `O=C1O[C@@H]([C@H](O)[C@H](O)CO)[C@@H](O)[C@H]1O` [Glucohepatonic acid lactone, glucohepatonic acid-1,4-lactone], the “inhibition of trophozoite proliferation” value in series [1] (setting [7]) is on record as around 30%. Besides, in series [5], the “Toxicity Compound Alone ALA” value is recorded as “CND”. For the same compound, the “Toxicity Compound/ascorbic acid combination ALA” value in series [5] is above 500 µg/mL. For the same compound, in series [6] (setting [11]), the “Toxicity Compound Alone HDF” value is listed as “CND”. Moreover, the “Toxicity Compound/ascorbic acid combination HDF” value in series [6] was above 500 µg/mL. Besides, the “IC50 Single Compound” value in series [2] (Sheep S2 Strain) worked out at 1746 µg/mL (≈ 8.39 mM); in series [3] (ATCC203333, compound alone), 2255 µg/mL (≈ 10.8 mM); in series [4] (ATCC PRA-251, compound alone), 3536 µg/mL (≈ 17 mM). For the same compound, the entries for the “Class of Interaction” value in series [2] (Sheep S2 Strain), in series [3] (ATCC203333) and in series [4] (ATCC PRA-251) were “independent (independent (ΣFIC50 > 1.0-4.0))”, “Independent” and “Independent”, respectively. The ΣFIC50 was 1.19 in series [2] (Sheep S2 Strain), 1.57 in series [3] (ATCC203333) and 1.25 in series [4] (ATCC PRA-251). Besides, the IC50 in series [2] (setting [12]) amounted to 9910 µM; in series [3] (setting [13]), 12800 µM; in series [4] (ATCC PRA-251, compound alone), 20100 µM. In series [4], the “inhibition of the metronidazole resistant strain (in words)” value is “ineffective inhibitors”.
Regarding `O=C1O[C@H](CO)[C@@H](O)[C@H](O)[C@H]1O` [Gluconolactone, gluconolactone], the “inhibition of trophozoite proliferation” value in series [1] (setting [10]) is “did not significantly affect the growth”. In addition, the “Toxicity Compound Alone ALA” value in series [5] is listed as “CND”. The “Toxicity Compound Alone HDF” value in series [6] was “CND”.
The compound `Cc1cc(OCCCC(C)(C)C(=O)O)c(C)cc1O` [HMDP, 5-(4-hydroxy-2,5-dimethylphenoxy)-2,2-dimethyl-pentanoic acid] returned an inhibition at 300 µg/mL in series [1] (setting [10]) of around 20%. Further, the “Toxicity Compound Alone ALA” value in series [5] is given as “CND”. Further, the “Toxicity Compound/ascorbic acid combination ALA” value in series [5] was above 500 µg/mL. Further, the “Toxicity Compound Alone HDF” value in series [6] (setting [11]) is listed as “CND”. Besides, in series [6], the “Toxicity Compound/ascorbic acid combination HDF” value is above 500 µg/mL. Further, the IC50 in series [2] (setting [8]) was 1840 µg/mL and 6.89 mM; in series [3] (setting [9]), 1580 µg/mL and 5.96 mM; in series [4] (Giardia duodenalis), 2030 µg/mL and 7.63 mM. Also, the “Class of Interaction” value is given as “Additive” in series [2] (Sheep S2 Strain), “Additive” in series [3] (ATCC203333) and “Independent” in series [4] (ATCC PRA-251). The ΣFIC50 in series [2] (Sheep S2 Strain) came to 0.69; in series [3] (ATCC203333) it was 0.81; in series [4] (ATCC PRA-251), 1.1.
Regarding `c1ncc2[nH]cnc2n1` [Purine, purine], the “inhibition of trophozoite proliferation” value in series [1] (setting [10]) is on record as “did not significantly affect the growth”. For the same compound, the “Toxicity Compound Alone ALA” value in series [5] is reported as “CND”. In series [6], the “Toxicity Compound Alone HDF” value is listed as “CND”.
`O=C(O)[C@]1(O)C[C@@H](O)[C@@H](O)[C@H](O)C1` [Quinic acid, quinic acid]: in series [1] (setting [10]), the inhibition at 300 µg/mL is around 30%. In addition, in series [5], the “Toxicity Compound Alone ALA” value was “CND”. For the same compound, the “Toxicity Compound/ascorbic acid combination ALA” value in series [5] is above 500 µg/mL. Moreover, the “Toxicity Compound Alone HDF” value in series [6] was “CND”. For the same compound, the IC50 in series [2] (setting [8]) is 1170 µg/mL and 6.1 mM; in series [3] (setting [9]) it was 1430 µg/mL and 7.43 mM; in series [4] (Giardia duodenalis), 1760 µg/mL and 9.13 mM. The “Class of Interaction” value in series [2] (Sheep S2 Strain), in series [3] (ATCC203333) and in series [4] (ATCC PRA-251) was “Additive” in each case. Moreover, the results for the ΣFIC50 in series [2] (Sheep S2 Strain), in series [3] (ATCC203333) and in series [4] (ATCC PRA-251) were 0.51, 0.73 and 0.95, respectively.
Regarding `O=C1O[C@H](CO)[C@@H](O)[C@H]1O` [Ribolactone, ribonolactone], in series [1] (setting [10]), the “inhibition of trophozoite proliferation” value is on record as “did not significantly affect the growth”. In series [5], the “Toxicity Compound Alone ALA” value is on record as “CND”. Also, the “Toxicity Compound Alone HDF” value in series [6] (setting [11]) is reported as “CND”.
